Measured values as given in ChEMBL document CHEMBL1157539, “Thousands of chemical starting points for antimalarial lead identification” (Nature, 2010).

Each compound was assayed on Plasmodium falciparum (assay: GSK_TCMDC: Inhibition of Plasmodium falciparum 3D7 in whole erythrocytes, using parasite LDH activity as an index of growth.). Settings: Plasmodium falciparum, 3D7.
Assay type: functional, organism-based
Compound CN1CC=C(c2c[nH]c3ccc(Br)cc23)CC1 has an XC50 of 1190 nM.
CN1CC=C(c2c[nH]c3ccc(-c4ccccc4)cc23)CC1 gave an XC50 of 775 nM.
CS(=O)(=O)CCNCc1ccc(-c2cc3c(Nc4ccc(OCc5cccc(F)c5)c(Cl)c4)ncnc3s2)[nH]1 showed an XC50 of 844 nM.
C/C=C/COc1ccc(-c2c(C)[nH]c(C)c(Cl)c2=O)cc1 showed an XC50 of 197 nM.
OC1CCCN(Cc2ccc(-c3cccc(-c4nc5ccccc5[nH]4)c3)cc2)C1 (stereo not given) gave an XC50 of 1340 nM.
For O=S(=O)(NCCN1CCCC1)c1ccc(-c2ccc(CNC3Cc4ccccc4C3)cc2)s1, the XC50 was 590 nM.
CC(C)(C)n1nnnc1C(c1cccnc1)N(Cc1ccccc1)Cc1ccc(Cl)cc1 (stereo not given) gave an XC50 of 744 nM.
Compound CN1CCN(c2ccc3[nH]c(-c4ccc5[nH]c(-c6ccc(O)cc6)nc5c4)nc3c2)CC1 has an XC50 of 121 nM.
Cc1nn(C)c(C)c1CN(Cc1nc(-c2cccc(Oc3ccccc3)c2)oc1C)C1CC1 gave an XC50 of 392 nM.
For CCOc1ccc(Nc2cc(C)nc(Nc3ccc(OCC)cc3)n2)cc1, the XC50 was 869 nM.
With O=C(NC1CC1)c1ccc(N2CCC(COc3cccc(F)c3)CC2)nc1 the XC50 was 1240 nM.
With C[C@H](NC(=O)c1c(CN2CCC(N3CCCCC3)CC2)c(-c2ccccc2)nc2cc(O)ccc12)C1CCCCC1 the XC50 was 759 nM.
CCN(CC)/C(=N\C(=N)NCCCCCCNC(=N)/N=C(\Nc1ccc(Cl)cc1)N(CC)CC)Nc1ccc(Cl)cc1 gave an XC50 of 927 nM.
With Nc1c(Cl)cc(C(O)CNCCCCCOCCc2ccccc2)cc1C(F)(F)F (stereo not given) the XC50 was 978 nM.
CCCC(C)N(Cc1ccc(C(C)(C)C)cc1)C(=O)c1cccc(OC)c1 (stereo not given) gave an XC50 of 336 nM.
For COc1ccccc1C(=O)N1CCN(Cc2cccs2)CC1, the XC50 was 869 nM.
With [O-][s+]1nc(NCCCN(Cc2cccs2)c2ccccn2)c(NCc2ccccc2)n1 (stereo not given) the XC50 was 305 nM.
With Cc1nc(Nc2ccncc2)cc(-c2ccncc2)n1 the XC50 was 725 nM.
For CC(Cc1ccc(CSC(C)C)cc1)NCC(O)c1cccc(Cl)c1 (stereo not given), the XC50 was 603 nM.
Work on Cc1[nH]c(C)c(-c2ccc(OCc3cc(F)cc(F)c3)nc2)c(=O)c1Br yielded an XC50 of 103 nM.
In the case of CC(Cc1ccc(Cl)cc1)Nc1nc(NC2CCCC2)nc(N2CCC(C#N)(c3ccccc3)CC2)n1 (stereo not given), the XC50 is reported as 715 nM.
For O=C(NCc1cccc(F)c1)Nc1ccc(-c2cccc(-c3nc4cc(F)ccc4[nH]3)c2)cc1, the XC50 was 772 nM.
CC(C)C(=O)NC(c1ccc(N(C)C)cc1)c1cc(Cl)c2cccnc2c1O (stereo not given) showed an XC50 of 859 nM.
In the case of Oc1ccc(CCNc2nc(NCc3ccccc3Oc3ccc(C(F)(F)F)cc3)nc(N3CCNCC3)n2)cc1, the XC50 is reported as 1160 nM.
For COc1ccc(NC(=O)[C@H](Cc2ccccc2)Nc2cc(C)nc(NCCc3cccs3)n2)cc1, the XC50 was 749 nM.
O=C(Nc1ccccc1F)NC1CCN(c2ccnc(Nc3ccc(F)cc3)n2)C1 (stereo not given) gave an XC50 of 854 nM.
Work on CN(C)CCN1CCN(Cc2cccc(-c3csc(-c4nc5ccccc5[nH]4)c3)c2)CC1 yielded an XC50 of 398 nM.
COc1ccc(CNCc2ccc(-c3ccc(CNCCc4ccccc4)cn3)cc2)cn1 showed an XC50 of 1010 nM.
With CN1CCCC(CN2CCN(Cc3cccc(-c4cccc(-c5nc6ccccc6[nH]5)c4)c3)CC2)C1 (stereo not given) the XC50 was 139 nM.
For COC(=O)C(C)NCC(=O)c1ccccc1 (stereo not given), the XC50 was 115 nM.
In the case of C=C[C@H]1CN(CCCCCCC)CC[C@H]1CC(O)Cc1ccnc2cc(O)c(OC)cc12 (stereo not given in full), the XC50 is reported as 818 nM.
O=C(N1CCN(c2ccc(C(F)(F)F)cc2[N+](=O)[O-])CC1)C(Cl)(Cl)Cl was tested, and the XC50 was 713 nM.
Work on N#C/N=C(\NCCCCCCCCN/C(=N\C#N)NCCSCc1csc(N=C(N)N)n1)NCCCSc1csc(N=C(N)N)n1 yielded an XC50 of 844 nM.
In the case of Cc1c(CNCCCNc2cc(=O)c3ccccc3[nH]2)sc(/C=N/O)c1Br, the XC50 is reported as 1080 nM.
For CN(C(=O)C(C)(C)Oc1ccc(Cl)cc1)C1CCN(CCCCCNC(=O)/C=C/c2ccc(Cl)c(Cl)c2)CC1, the XC50 was 916 nM.
COc1cc(CNC[C@@H](O)[C@H](Cc2ccccc2)NC(=O)c2cc(OC(C)C)cc(N3CCCS3(=O)=O)c2)cc(OC)c1 was tested, and the XC50 was 798 nM.
CCNc1cc(C(=O)N[C@@H](Cc2ccccc2Cl)[C@H](O)CNC(C)CCCC(C)C)cc(N2CCCCS2(=O)=O)c1 (stereo not given in full) showed an XC50 of 928 nM.
COc1cc(C2CCCCC2)c(OC)cc1CC1c2cc(O)c(Cl)cc2CCN1C (stereo not given) gave an XC50 of 449 nM.
In the case of Oc1ccc(Br)cc1C(O)CNCc1ccccc1OCc1ccccc1 (stereo not given), the XC50 is reported as 167 nM.
For O=C(/C=C/c1cccc(Cl)c1)NCCCCCN1CCC(c2c[nH]c3ccccc23)CC1, the XC50 was 988 nM.
COc1ccc(C(=O)O)cc1OCc1ccccc1 gave an XC50 of 819 nM.
Compound c1ccc(OCCCCN2CCCCC2)cc1 has an XC50 of 537 nM.
Work on CCC(C)NC(=O)Nc1ccc(-c2cccc(-c3nc4cc(C(F)(F)F)ccc4[nH]3)c2)cc1 (stereo not given) yielded an XC50 of 624 nM.
For CO/C(=C\C=C\c1cc2cc(Cl)c(Cl)cc2[nH]1)C(=O)NCCCN1CCCC[C@H]1C, the XC50 was 791 nM.
O=C(NCC1COc2ccccc2O1)c1cnc2c(c1)nc(-c1c[nH]c(-c3ccccc3)n1)n2CCSCc1c(F)cccc1Cl (stereo not given) showed an XC50 of 959 nM.
For COc1cccc(Nc2c(C(N)=O)cnc3ccc(-c4ccccc4)cc23)c1, the XC50 was 771 nM.
COc1c(C2CCN(CCCCNC(=O)c3ccc(-c4ccc(C#N)cc4)cc3)CC2)ccc2c1C(C)(C)CCC2(C)C gave an XC50 of 411 nM.
For O=C(/C=C/c1ccc(Cl)c(Cl)c1)NCCCCCN1CCC(NC(=O)Nc2ccc(Cl)cc2F)CC1, the XC50 was 313 nM.
Work on c1ccc(COc2ccnc(NCCCOc3cccc(CN4CCCCC4)c3)c2)cc1 yielded an XC50 of 994 nM.
In the case of O=C(NCCc1ccccc1)N(Cc1ccccc1-c1cccc(CNC2CCCC2)c1)C1CCN(Cc2ccccc2)CC1, the XC50 is reported as 832 nM.
CN(C)c1ccc(-c2csc(C(=O)NCC3CCN(Cc4cccc(C(F)(F)F)c4)C3)c2)cc1 (stereo not given) showed an XC50 of 843 nM.
COC(=O)c1ccc(NC(=O)c2ccc(CCN3CCC(c4nc(COCC(F)(F)F)c(-c5ccc(F)cc5)o4)CC3)cc2)cc1 gave an XC50 of 1040 nM.
O=C(Nc1ccc(OC2CCN(Cc3ccc(F)cc3)C2)c(Cl)c1)c1ccc(F)cc1 (stereo not given) showed an XC50 of 490 nM.
With Cc1ccc(-n2c(=O)c3cccnc3n2CC(=O)Nc2cccc(C)c2C)cc1 the XC50 was 865 nM.
Work on Cc1nc(NCc2ccccc2)cc(Nc2cc(NCc3ccccc3)nc(C)n2)n1 yielded an XC50 of 971 nM.
Compound Cc1nc2ccc(F)cc2n1C1CCN(C(=O)Cc2ccc(F)c(F)c2)CC1 has an XC50 of 1410 nM.
Compound CN(C)Cc1cccc2nc(-c3csc(Cc4cc(Cl)ccc4OCc4ccccc4)n3)[nH]c12 has an XC50 of 1120 nM.
In the case of COc1cc2nc(N3CCC(CNC(=O)c4ccc(-c5ccc(C(F)(F)F)cc5)cc4)CC3)nc(N)c2cc1OC, the XC50 is reported as 127 nM.
COc1ccc2nccc([C@@H](O)CN3CCC(NC(=O)c4ccc(Cl)c(Cl)c4)CC3)c2c1 was tested, and the XC50 was 614 nM.
In the case of CCOc1ccc(C(C)NC(=O)Cc2ccccc2F)cc1OCC (stereo not given), the XC50 is reported as 844 nM.
Compound CC(C)c1ccc(S(=O)(=O)N(c2ccc3c(c2)OCO3)C2CCN(Cc3ccccc3)C2)cc1 (stereo not given) has an XC50 of 350 nM.
Work on Cc1cccc2nc(-c3cccc(-c4ccc(NC(=O)NC(C)C)cc4)c3)[nH]c12 yielded an XC50 of 754 nM.
For CN(C)CCNCc1cccc(-c2ccc3c(Nc4ccc(Oc5ccccn5)cc4)ccnc3c2)c1, the XC50 was 233 nM.
CC(C)c1ccc(S(=O)(=O)Nc2cccc(CCN3CCC(N4CCCCC4)CC3)c2)cc1 was tested, and the XC50 was 1120 nM.
With NC(=O)c1ccccc1OCC(=O)Nc1cccc(-c2cccc(-c3nc4ccccc4[nH]3)c2)c1 the XC50 was 376 nM.
Work on COc1ccc2ncc(F)c(CCN3CCC(NCc4cnc5c(c4)NC(=O)CS5)CC3)c2c1 yielded an XC50 of 575 nM.
CCCCOc1c(CCNCCCCNCCc2cc(F)c3ccccc3c2OCCCC)cc(F)c2ccccc12 gave an XC50 of 629 nM.
Compound N#Cc1ccc(CN2CCC(NC(=O)c3ccc(-c4nnc(-c5cccc6ccccc56)o4)cc3)CC2)cc1 has an XC50 of 684 nM.
Work on COc1ccc(Nc2nccc(-c3c(-c4cccc(NC(=O)c5c(F)cccc5F)c4)nn4ccccc34)n2)cc1Cl yielded an XC50 of 284 nM.
In the case of Fc1ccc2[nH]c(-c3ccc(-c4ccc(CNCCc5ccncc5)cc4)s3)nc2c1, the XC50 is reported as 142 nM.
In the case of CCOc1cc(Cc2cnc(N)nc2N)cc(OCC)c1O, the XC50 is reported as 1170 nM.
Compound COc1ccc(C(=O)Nc2ccc(Nc3nc(C)cc(N(C)C)n3)cc2)c(OC)c1 has an XC50 of 868 nM.
COc1cc2nc(N3CCN(c4cc(C)ccc4C)CC3)nc(N)c2cc1OC was tested, and the XC50 was 851 nM.
For CC(=O)N(C)/N=C/[C@H](CCc1ccccc1)NC(=O)[C@H](CC(C)C)NC(=O)c1cccc(OCCN2CCOCC2)c1, the XC50 was 332 nM.
O=C(NCC1CCN(CCN2CCc3ccc4c(c3C2)OCO4)CC1)c1ccc(-c2ccc(C(F)(F)F)cc2)cc1 gave an XC50 of 861 nM.
COc1cc(C(=O)N2C(c3nccs3)C(C(=O)N(OC)C(C)c3ccccc3)CC2(CC(C)C)C(=O)OC(C)(C)C)ccc1C(C)(C)C (stereo not given) gave an XC50 of 1070 nM.
Cn1cnc(-c2ccc3c(c2)CCN(CCC2CCC(NC(=O)/C=C/c4ccc(F)cc4)CC2)CC3)c1 (stereo not given) showed an XC50 of 904 nM.
For C[C@H](Cc1ccc(OCCCCCCOc2ccc(C[C@@H](C)NC[C@H](O)c3cccc(Cl)c3)cc2)cc1)NC[C@H](O)c1cccc(Cl)c1, the XC50 was 296 nM.
Work on CCc1ccc(CNCC(CCNc2cc(=O)c3ccccc3[nH]2)NCc2cc(Br)cc(Br)c2)o1 (stereo not given) yielded an XC50 of 638 nM.
Cc1cc2ccc(CNCCc3ccccc3Br)cc2nc1N gave an XC50 of 514 nM.
Compound CC(C)Sc1nc(-c2ccccc2)nc2c1COC(C)(C)C2 has an XC50 of 857 nM.
For Cc1cc(O)nc(NC#N)n1, the XC50 was 166 nM.
COc1ccc(-c2ccc(NC(=O)c3cccc(Cl)c3)cc2)cc1CN1CCCC1 gave an XC50 of 705 nM.
CN(C)c1ccc(C=C2SC(=O)N=C2Nc2ccccc2)cc1 showed an XC50 of 32.1 nM.
CCCN(CCC)CCCN(CCCN(CCC)CCC)c1cc(C)nc(Nc2ccc(Cl)cc2)n1 gave an XC50 of 168 nM.
In the case of CN(C)CCCOc1ccc(CNCC(C)(C)c2nc(-c3ccc(Cl)c(O)c3)c(-c3ccncc3)[nH]2)cc1, the XC50 is reported as 708 nM.
In the case of COc1ccc2nccc([C@@H](O)CN3CCC(NCc4nc5c([N+](=O)[O-])cccc5[nH]4)CC3)c2c1, the XC50 is reported as 705 nM.
With CC(C)C[C@H](NC(=O)c1cc(-c2ccc(F)cc2)no1)C(=O)O.CC(C)C[C@H](NC(=O)c1conc1-c1ccc(F)cc1)C(=O)O the XC50 was 979 nM.
For Cc1ccc(O)c(C(=O)c2cc(C(=O)Nc3ccccc3C)c(=O)n(-c3ccccc3C)c2)c1, the XC50 was 784 nM.
For CC(=O)Nc1ccc(CN2CCC(N(C)c3cc(NC(=O)c4ccc(F)cc4)ccn3)CC2)cc1, the XC50 was 1120 nM.
Compound O=C(CN1CCCCC1)Nc1ccc(Nc2nccc(NCC(O)c3ccccc3)n2)cc1 (stereo not given) has an XC50 of 583 nM.
Compound COC(=O)c1cccc(CNCc2cccc(-c3ccc(-c4nc5ccccc5[nH]4)s3)c2)c1 has an XC50 of 491 nM.
Compound CC[C@H](C)CNC(=O)c1cncc(-c2ccc(CNCC3CNCCCO3)cc2)c1 (stereo not given in full) has an XC50 of 1020 nM.
CCCCCOc1ccc(C(O)C(CCC(CN2CCCCCC2)C(O)c2ccc(OCCCCC)cc2)CN2CCCCCC2)cc1 (stereo not given) showed an XC50 of 768 nM.
Nc1nc(N)c2c(CCc3ccc4ccccc4c3)cccc2n1 showed an XC50 of 693 nM.
